Source: patent US7666909B2, “Enhancement of alcohol metabolism” (priority 2005, dated 2010)

Key:
mouse = settings: cited from earlier work
ALDH = assay: Formation of acetic acid from AcA by ALDH/NADH in the presence of D-GLAC (Reaction 6), gas chromatography; type: biochemical; settings: 3 mmol D-GLAC, 0.3 mmol AcA, 5 units ALDH, NADH, phosphate buffer pH 6.865, stirred 6 hours; GC analysis
[1] = Effect of D-glyceric acid on blood alcohol level in rats after intraperitoneal alcohol; type: in vivo, rat; settings: on average, both fasted and nonfasted rats; versus same alcohol dose without D-GLAC
Method: 40 animals were fasted for 12 hours before the experiment, and 40 were fed normally. In the experiment, each rat received intraperitoneally an intoxicating single dose of alcohol (1.2 g/kg, 10% w/v) in physiological saline. […] The blood samples were then analysed by headspace gas chromatography.

[2] = large doses (1-5 g/kg) taken together with the alcohol (Crownover et al. 1986); cited from earlier work
[3] = oral administration during alcohol drinking (Tabakoff et al. 1989); cited from earlier work

For CC=O [AcA, acetaldehyde], the LD100 (mouse; acute toxicity) is given as 750 mg/kg.

With O=C(O)C(O)CO [D-GLAC, D-glyceric acid] the “Formation of acetic acid from AcA” value (ALDH) was “acetic acid had been formed” and the “Lower blood alcohol concentration than the corresponding control group” value [1] was 20%.

In the case of CCO [alcohol, ethyl alcohol], the LD70 (mouse; in vivo) is given as 6500 mg/kg.

For O=C(CO)[C@@H](O)[C@H](O)[C@H](O)CO [fructose], the “Enhancement of alcohol elimination rate” value [2] is given as “up to 20%”.

In the case of CSCC[C@H](N)C(=O)O [methionine], the “Reduction in blood AcA concentrations” value [3] is listed as 20%.
